Measured values from patent publication US11608342B2, “PDE9 inhibitors with imidazo triazinone backbone and imidazo pyrazinone backbone for treatment of peripheral diseases” (H. LUNDBECK A/S, priority 2015, dated 2023).

What was measured:
PDE9 = PDE9 (Homo sapiens (Human), UniProt O76083); assay: PDE9 inhibition assay; type: biochemical; details: 3H-cAMP substrate, SPA
Description: Reactions are initiated by addition of the cyclic nucleotide substrate, and reactions are allowed to proceed for one hr at room temperature before being terminated through mixing with 15 uL 8 mg/mL yttrium silicate SPA beads (Amersham). […] Following a 1 hour incubation the reactions were terminated by addition of 15 uL 8 mg/mL yttrium silicate SPA beads (Amersham). […] IC50 values were calculated by nonlinear regression using XLfit (IDBS).

[1] = Blood Brain Barrier penetration (brain-to-plasma distribution); type: in vivo, Male CD mice; details: mouse, 10 mg/kg subcutaneous
Description: Male CD mice (20-24 g) were housed pair-wise with free access to food and water for an acclimatization period of 3-7 days before initiation of experiments. Prior to dosing the animals were fasted overnight. During testing, mice were kept in individual cages. The brain-to-plasma distribution was assessed 30 minutes and 2 hours after subcutaneous administration of the test compound at a dose of 10 mg/kg (n=3 at each time point). The dose volume was 10 ml/kg using appropriate vehicle to solubilize each test compound. At the time of sampling, animals were anesthetized with isoflurane and a systemic blood sample collected by cardiac puncture into vacutainers containing sodium heparin as anti-coagulant. The blood was centrifuged at 3500 rpm for 10 minutes at 4° C. to obtain plasma. Following decapitation, brains were dissected out and transferred to pre-weighed vessels followed by tissue weights determination. Plasma and brains were stored at −80° C. until quantitative bioanalysis by LC-MS/MS. Results are expressed as ng/ml for plasma and ng/g for brain samples.

Sequence of PDE9 (O76083 whole entry): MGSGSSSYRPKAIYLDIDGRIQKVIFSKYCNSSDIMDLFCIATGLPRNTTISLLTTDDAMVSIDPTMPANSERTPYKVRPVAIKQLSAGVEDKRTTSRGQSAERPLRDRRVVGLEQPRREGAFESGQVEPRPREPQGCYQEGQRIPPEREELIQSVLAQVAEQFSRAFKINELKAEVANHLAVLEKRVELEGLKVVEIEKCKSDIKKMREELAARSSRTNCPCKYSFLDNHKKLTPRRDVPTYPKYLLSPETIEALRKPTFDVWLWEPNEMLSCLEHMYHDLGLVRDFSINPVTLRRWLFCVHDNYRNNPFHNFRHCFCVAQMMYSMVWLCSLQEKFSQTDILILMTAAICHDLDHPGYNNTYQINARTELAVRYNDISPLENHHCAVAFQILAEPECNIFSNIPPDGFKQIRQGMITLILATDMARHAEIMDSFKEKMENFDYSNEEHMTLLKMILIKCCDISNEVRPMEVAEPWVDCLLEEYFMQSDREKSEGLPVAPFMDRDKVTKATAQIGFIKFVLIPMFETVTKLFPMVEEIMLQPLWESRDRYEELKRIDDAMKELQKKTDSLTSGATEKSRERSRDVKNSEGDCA

SMILES | IC50 (PDE9) [nM] | Brain concentration after 120 minutes [1] | Brain concentration after 30 minutes ([1]; 30 min)
C[C@@H]1CN(Cc2ncccn2)C[C@H]1c1cn2c(C3CCOCC3)ncc2c(=O)[nH]1 (single isomer, unassigned) [Compound (P3, enantiomer 1)] | 49 | 120 mm.: 7 ng/mL | 
O=c1[nH]c(CN2CC(Oc3cccnc3)C2)cn2c(C3CCOCC3)ncc12 [Compound (P2), 6-[3-(pyridin-3-yloxy)-azetidin-1-ylmethyl]-3-(tetrahydropyran-4-yl)-7H-imidazo[1,5-a]pyrazin-8-one] |  | Below detection | Below detection
